Data on two compounds can be found in ChEMBL document CHEMBL4831516, “Development of Membrane-Active Honokiol/Magnolol Amphiphiles as Potent Antibacterial Agents against Methicillin-Resistant Staphylococcus aureus (MRSA)” (J Med Chem, 2021).

The subject of one series is Staphylococcus aureus. As to the kind of experiment: Antibacterial activity against methicillin-resistant Staphylococcus aureus clinical isolate M-11 assessed as inhibition of visible growth incubated for 16 to 18 hrs by CLSI method. Type of series: functional. Particulars: time 16-18 hrs, read-out: MIC100.
As to `C=CCc1ccc(O)c(-c2cc(CC=C)ccc2OCCC[N+](C)(C)CC(=O)NCCCCC)c1.[Br-]`, the MIC stood at 8 µg/mL.
Still for that read-out and setting: under `C=CCc1ccc(O)c(-c2cc(CC=C)ccc2OCC[N+](C)(C)CC(=O)NCCCCCC)c1.[Br-]` stands 8 µg/mL.

A further series relates to Staphylococcus aureus. The experiment in a line: Antibacterial activity against methicillin-resistant Staphylococcus aureus clinical isolate M-16 assessed as inhibition of visible growth incubated for 16 to 18 hrs by CLSI method. The series is classed as functional. Particulars: time 16-18 hrs, read-out: MIC100.
With `C=CCc1ccc(O)c(-c2cc(CC=C)ccc2OCCC[N+](C)(C)CC(=O)NCCCCC)c1.[Br-]`, the MIC stood at 2 µg/mL.
The same measure, in the same setting: under `C=CCc1ccc(O)c(-c2cc(CC=C)ccc2OCC[N+](C)(C)CC(=O)NCCCCCC)c1.[Br-]` stands 4 µg/mL.

For the next series, the system named is Staphylococcus aureus. As to the kind of experiment: Antibacterial activity against methicillin-resistant Staphylococcus aureus clinical isolate M-18 assessed as inhibition of visible growth incubated for 16 to 18 hrs by CLSI method. The series is classed as functional. Particulars: time 16-18 hrs, read-out: MIC100.
Take `C=CCc1ccc(O)c(-c2cc(CC=C)ccc2OCCC[N+](C)(C)CC(=O)NCCCCC)c1.[Br-]`: the MIC stood at 2 µg/mL.
The same measure, in the same setting: under `C=CCc1ccc(O)c(-c2cc(CC=C)ccc2OCC[N+](C)(C)CC(=O)NCCCCCC)c1.[Br-]` stands 8 µg/mL.

A further series deals with Staphylococcus aureus. The experiment in a line: Antibacterial activity against methicillin-resistant Staphylococcus aureus clinical isolate M-19 assessed as inhibition of visible growth incubated for 16 to 18 hrs by CLSI method. The series is classed as functional. Particulars: time 16-18 hrs, read-out: MIC100.
For `C=CCc1ccc(O)c(-c2cc(CC=C)ccc2OCCC[N+](C)(C)CC(=O)NCCCCC)c1.[Br-]`, the MIC was found to be 2 µg/mL.
The same measure, in the same setting: under `C=CCc1ccc(O)c(-c2cc(CC=C)ccc2OCC[N+](C)(C)CC(=O)NCCCCCC)c1.[Br-]` stands 8 µg/mL.

A further series has as its system Salmonella enterica. The experiment in a line: Antibacterial activity against Salmonella enterica 349812 assessed as inhibition of visible growth incubated for 16 to 18 hrs by CLSI method. The series is classed as functional. Particulars: time 16-18 hrs, read-out: MIC100.
On to `C=CCc1ccc(O)c(-c2cc(CC=C)ccc2OCCC[N+](C)(C)CC(=O)NCCCCC)c1.[Br-]`, for which the MIC stood at 32 µg/mL.
Turning to `C=CCc1ccc(O)c(-c2cc(CC=C)ccc2OCC[N+](C)(C)CC(=O)NCCCCCC)c1.[Br-]`, the MIC stood at 64 µg/mL.

The test system of another series is Salmonella enterica. The experiment in a line: Antibacterial activity against Salmonella enterica 8389 assessed as inhibition of visible growth incubated for 16 to 18 hrs by CLSI method. Type of series: functional. The conditions noted are these: time 16-18 hrs, read-out: MIC100.
On to `C=CCc1ccc(O)c(-c2cc(CC=C)ccc2OCCC[N+](C)(C)CC(=O)NCCCCC)c1.[Br-]`, for which the MIC came out at 16 µg/mL.
On the same count and under the same terms, under `C=CCc1ccc(O)c(-c2cc(CC=C)ccc2OCC[N+](C)(C)CC(=O)NCCCCCC)c1.[Br-]` stands 64 µg/mL.

The next series relates to Staphylococcus aureus. The experiment in a line: Antibacterial activity against methicillin-resistant Staphylococcus aureus clinical isolate M-17 assessed as inhibition of visible growth incubated for 16 to 18 hrs by CLSI method. The series is classed as functional. The conditions noted are these: time 16-18 hrs, read-out: MIC100.
On to `C=CCc1ccc(O)c(-c2cc(CC=C)ccc2OCCC[N+](C)(C)CC(=O)NCCCCC)c1.[Br-]`, for which the MIC came out at 2 µg/mL.
Same read-out and setting: under `C=CCc1ccc(O)c(-c2cc(CC=C)ccc2OCC[N+](C)(C)CC(=O)NCCCCCC)c1.[Br-]` stands 8 µg/mL.

Tested on in the next series: not listed separately
The experiment in a line: Hemolytic activity in sheep RBC assessed as hemolysis incubated for 1 hr. The series is classed as ADME, cell-based, Ovis aries, Erythrocyte. The conditions noted are these: sheep red blood cells (erythrocytes).
As a reminder, the HC50 is the concentration that lyses half of the red blood cells. For `C=CCc1ccc(O)c(-c2cc(CC=C)ccc2OCCC[N+](C)(C)CC(=O)NCCCCC)c1.[Br-]`, the concentration for 50% haemolysis (HC50) at 1 h came out at 678 µg/mL.
Same read-out and setting: under `C=CCc1ccc(O)c(-c2cc(CC=C)ccc2OCC[N+](C)(C)CC(=O)NCCCCCC)c1.[Br-]` stands 723 µg/mL.

A further series has as its system Micrococcus luteus. The experiment in a line: Antibacterial activity against Micrococcus luteus assessed as inhibition of visible growth incubated for 16 to 18 hrs by CLSI method. Particulars: time 16-18 hrs, read-out: MIC100. The series is classed as functional.
Take `C=CCc1ccc(O)c(-c2cc(CC=C)ccc2OCCC[N+](C)(C)CC(=O)NCCCCC)c1.[Br-]`: the MIC worked out at 1 µg/mL.
Take `C=CCc1ccc(O)c(-c2cc(CC=C)ccc2OCC[N+](C)(C)CC(=O)NCCCCCC)c1.[Br-]`: the MIC amounted to 4 µg/mL.

The next series concerns Bacillus subtilis. As to the kind of experiment: Antibacterial activity against Bacillus subtilis assessed as inhibition of visible growth incubated for 16 to 18 hrs by CLSI method. Type of series: functional. The conditions noted are these: time 16-18 hrs, read-out: MIC100.
Turning to `C=CCc1ccc(O)c(-c2cc(CC=C)ccc2OCCC[N+](C)(C)CC(=O)NCCCCC)c1.[Br-]`, the MIC turned out to be 1 µg/mL.
On the same count and under the same terms, under `C=CCc1ccc(O)c(-c2cc(CC=C)ccc2OCC[N+](C)(C)CC(=O)NCCCCCC)c1.[Br-]` stands 4 µg/mL.

A further series relates to Staphylococcus aureus. As to the kind of experiment: Antibacterial activity against methicillin-resistant Staphylococcus aureus clinical isolate M-14 assessed as inhibition of visible growth incubated for 16 to 18 hrs by CLSI method. The series is classed as functional. Particulars: time 16-18 hrs, read-out: MIC100.
Consider `C=CCc1ccc(O)c(-c2cc(CC=C)ccc2OCCC[N+](C)(C)CC(=O)NCCCCC)c1.[Br-]`, for which the MIC stood at 2 µg/mL.
For `C=CCc1ccc(O)c(-c2cc(CC=C)ccc2OCC[N+](C)(C)CC(=O)NCCCCCC)c1.[Br-]`, the MIC turned out to be 4 µg/mL.

The test system of another series is Escherichia coli. The experiment in a line: Antibacterial activity against Escherichia coli ATCC25922 assessed as inhibition of visible growth incubated for 16 to 18 hrs by CLSI method. The conditions noted are these: time 16-18 hrs, read-out: MIC100. The series is classed as functional.
On to `C=CCc1ccc(O)c(-c2cc(CC=C)ccc2OCCC[N+](C)(C)CC(=O)NCCCCC)c1.[Br-]`, for which the MIC was 8 µg/mL.
Still for that read-out and setting: under `C=CCc1ccc(O)c(-c2cc(CC=C)ccc2OCC[N+](C)(C)CC(=O)NCCCCCC)c1.[Br-]` stands 32 µg/mL.

A further series concerns Staphylococcus aureus. As to the kind of experiment: Antibacterial activity against methicillin-resistant Staphylococcus aureus clinical isolate M-15 assessed as inhibition of visible growth incubated for 16 to 18 hrs by CLSI method. The series is classed as functional. The conditions noted are these: time 16-18 hrs, read-out: MIC100.
Turning to `C=CCc1ccc(O)c(-c2cc(CC=C)ccc2OCCC[N+](C)(C)CC(=O)NCCCCC)c1.[Br-]`, the MIC came out at 2 µg/mL.
For the compound `C=CCc1ccc(O)c(-c2cc(CC=C)ccc2OCC[N+](C)(C)CC(=O)NCCCCCC)c1.[Br-]`, the MIC is 4 µg/mL.

Tested on in another series: not listed separately
The experiment in a line: Selectivity index, HC50 for hemolytic activity in sheep RBC to MIC for antibacterial activity against Staphylococcus aureus ATCC29213. The series is classed as toxicity. Particulars: sheep red blood cells (erythrocytes), read-out: Selectivity Index.
As to `C=CCc1ccc(O)c(-c2cc(CC=C)ccc2OCCC[N+](C)(C)CC(=O)NCCCCC)c1.[Br-]`, the selectivity ratio is 339.
On the same count and under the same terms, under `C=CCc1ccc(O)c(-c2cc(CC=C)ccc2OCC[N+](C)(C)CC(=O)NCCCCCC)c1.[Br-]` stands 181.

Another series concerns Staphylococcus aureus. The experiment in a line: Antibacterial activity against Staphylococcus aureus ATCC29213 assessed as inhibition of visible growth incubated for 16 to 18 hrs by CLSI method. The conditions noted are these: time 16-18 hrs, read-out: MIC100. Type of series: functional.
As to `C=CCc1ccc(O)c(-c2cc(CC=C)ccc2OCCC[N+](C)(C)CC(=O)NCCCCC)c1.[Br-]`, the MIC is 2 µg/mL.
The same measure, in the same setting: under `C=CCc1ccc(O)c(-c2cc(CC=C)ccc2OCC[N+](C)(C)CC(=O)NCCCCCC)c1.[Br-]` stands 4 µg/mL.

In the next series the test system is Staphylococcus aureus. As to the kind of experiment: Antibacterial activity against methicillin-resistant Staphylococcus aureus clinical isolate M-12 assessed as inhibition of visible growth incubated for 16 to 18 hrs by CLSI method. The series is classed as functional. The conditions noted are these: time 16-18 hrs, read-out: MIC100.
Take `C=CCc1ccc(O)c(-c2cc(CC=C)ccc2OCCC[N+](C)(C)CC(=O)NCCCCC)c1.[Br-]`: the MIC was found to be 2 µg/mL.
With `C=CCc1ccc(O)c(-c2cc(CC=C)ccc2OCC[N+](C)(C)CC(=O)NCCCCCC)c1.[Br-]`, the MIC was determined as 8 µg/mL.

The test system of the next series is Enterococcus faecalis. As to the kind of experiment: Antibacterial activity against Enterococcus faecalis ATCC29212 assessed as inhibition of visible growth incubated for 16 to 18 hrs by CLSI method. The series is classed as functional. Particulars: time 16-18 hrs, read-out: MIC100.
Take `C=CCc1ccc(O)c(-c2cc(CC=C)ccc2OCCC[N+](C)(C)CC(=O)NCCCCC)c1.[Br-]`: the MIC turned out to be 4 µg/mL.
As for `C=CCc1ccc(O)c(-c2cc(CC=C)ccc2OCC[N+](C)(C)CC(=O)NCCCCCC)c1.[Br-]`, the MIC was 16 µg/mL.

In the next series the test system is Staphylococcus aureus. As to the kind of experiment: Antibacterial activity against methicillin-resistant Staphylococcus aureus clinical isolate M-13 assessed as inhibition of visible growth incubated for 16 to 18 hrs by CLSI method. The series is classed as functional. The conditions noted are these: time 16-18 hrs, read-out: MIC100.
In the case of `C=CCc1ccc(O)c(-c2cc(CC=C)ccc2OCCC[N+](C)(C)CC(=O)NCCCCC)c1.[Br-]`, the MIC amounted to 4 µg/mL.
Still for that read-out and setting: under `C=CCc1ccc(O)c(-c2cc(CC=C)ccc2OCC[N+](C)(C)CC(=O)NCCCCCC)c1.[Br-]` stands 8 µg/mL.

The test system of the next series is Staphylococcus aureus. The experiment in a line: Antibacterial activity against methicillin-resistant Staphylococcus aureus clinical isolate M-20 assessed as inhibition of visible growth incubated for 16 to 18 hrs by CLSI method. The series is classed as functional. Particulars: time 16-18 hrs, read-out: MIC100.
For the compound `C=CCc1ccc(O)c(-c2cc(CC=C)ccc2OCCC[N+](C)(C)CC(=O)NCCCCC)c1.[Br-]`, the MIC came out at 2 µg/mL.
Still for that read-out and setting: under `C=CCc1ccc(O)c(-c2cc(CC=C)ccc2OCC[N+](C)(C)CC(=O)NCCCCCC)c1.[Br-]` stands 4 µg/mL.

The subject of another series is Stenotrophomonas maltophilia. As to the kind of experiment: Antibacterial activity against Stenotrophomonas maltophilia assessed as inhibition of visible growth incubated for 16 to 18 hrs by CLSI method. The conditions noted are these: time 16-18 hrs, read-out: MIC100. Type of series: functional.
Consider `C=CCc1ccc(O)c(-c2cc(CC=C)ccc2OCCC[N+](C)(C)CC(=O)NCCCCC)c1.[Br-]`, for which the MIC worked out at 16 µg/mL.
Same read-out and setting: under `C=CCc1ccc(O)c(-c2cc(CC=C)ccc2OCC[N+](C)(C)CC(=O)NCCCCCC)c1.[Br-]` stands 64 µg/mL.
